{"source": "the supplement of paper PMC10307832", "experiment_in_all_cases": "relative viability (nuclei count vs DMSO), 5 days (fraction); higher = more cells survive", "key": {"CAL-12T": {"system": "CAL-12T", "method_in_brief": "(§1)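 Each reported value is a median over duplicate plates. It expresses relative viability: treated-well nuclei count divided by vehicle-well nuclei count. Lung cancer cell lines in 1536-well plates were dosed by pin tool a day after seeding, alone with one drug or with a fixed anchor-drug dose plus five library-drug doses (not always all listed) in √10 steps, and nuclei were counted after 5 days.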"}, "NCI-H1650": {"system": "NCI-H1650", "method_in_brief": "as §1"}, "NCI-H2405": {"system": "NCI-H2405", "method_in_brief": "as §1"}, "LK-2": {"system": "LK-2", "method_in_brief": "as §1"}, "RERF-LC-KJ": {"system": "RERF-LC-KJ", "method_in_brief": "as §1"}, "NCI-H2342": {"system": "NCI-H2342", "method_in_brief": "as §1"}, "NCI-H1755": {"system": "NCI-H1755", "method_in_brief": "as §1"}, "LCLC-97TM1": {"system": "LCLC-97TM1", "method_in_brief": "as §1"}, "NCI-H1355": {"system": "NCI-H1355", "method_in_brief": "as §1"}, "NCI-H1734": {"system": "NCI-H1734", "method_in_brief": "as §1"}, "PC-3 [JPC-3]": {"system": "PC-3 [JPC-3]", "method_in_brief": "as §1"}, "NCI-H661": {"system": "NCI-H661", "method_in_brief": "as §1"}, "HCC-827": {"system": "HCC-827", "method_in_brief": "as §1"}, "NCI-H520": {"system": "NCI-H520", "method_in_brief": "as §1"}, "H3255": {"system": "H3255", "method_in_brief": "as §1"}, "PC-14": {"system": "PC-14", "method_in_brief": "as §1"}, "EKVX": {"system": "EKVX", "method_in_brief": "as §1"}, "NCI-H1975": {"system": "NCI-H1975", "method_in_brief": "as §1"}, "NCI-H322M": {"system": "NCI-H322M", "method_in_brief": "as §1"}, "NCI-H2228": {"system": "NCI-H2228", "method_in_brief": "as §1"}, "HCC-15": {"system": "HCC-15", "method_in_brief": "as §1"}}}
{"smiles": "COc1nc(C)cnc1NS(=O)(=O)c1cccnc1-c1ccc(-c2nnco2)cc1", "note": "[Zibotentan] + O=C(c1cc(Cc2n[nH]c(=O)c3ccccc23)ccc1F)N1CCN(C(=O)C2CC2)CC1 [Olaparib] (partner 8 µM)", "values": [{"measurement": "relative viability", "setting": "CAL-12T; first compound 0.08 µM", "value": 0.742}, {"measurement": "relative viability", "setting": "CAL-12T; first compound 0.253 µM", "value": 0.67}, {"measurement": "relative viability", "setting": "CAL-12T; first compound 0.8 µM", "value": 0.768}, {"measurement": "relative viability", "setting": "CAL-12T; first compound 2.53 µM", "value": 0.664}, {"measurement": "relative viability", "setting": "NCI-H1650; first compound 0.08 µM", "value": 0.803}, {"measurement": "relative viability", "setting": "NCI-H1650; first compound 0.8 µM", "value": 0.757}, {"measurement": "relative viability", "setting": "NCI-H1650; first compound 2.53 µM", "value": 0.682}, {"measurement": "relative viability", "setting": "NCI-H2405; first compound 0.08 µM", "value": 0.878}, {"measurement": "relative viability", "setting": "NCI-H2405; first compound 0.253 µM", "value": 0.843}, {"measurement": "relative viability", "setting": "NCI-H2405; first compound 0.8 µM", "value": 0.915}, {"measurement": "relative viability", "setting": "NCI-H2405; first compound 2.53 µM", "value": 0.892}, {"measurement": "relative viability", "setting": "LK-2; first compound 0.08 µM", "value": 0.945}, {"measurement": "relative viability", "setting": "LK-2; first compound 0.253 µM", "value": 0.521}, {"measurement": "relative viability", "setting": "LK-2; first compound 0.8 µM", "value": 0.75}, {"measurement": "relative viability", "setting": "LK-2; first compound 2.53 µM", "value": 0.718}, {"measurement": "relative viability", "setting": "RERF-LC-KJ; first compound 0.08 µM", "value": 0.832}, {"measurement": "relative viability", "setting": "RERF-LC-KJ; first compound 0.253 µM", "value": 0.802}, {"measurement": "relative viability", "setting": "RERF-LC-KJ; first compound 0.8 µM", "value": 0.921}, {"measurement": "relative viability", "setting": "RERF-LC-KJ; first compound 2.53 µM", "value": 0.894}, {"measurement": "relative viability", "setting": "NCI-H2342; first compound 0.08 µM", "value": 0.407}, {"measurement": "relative viability", "setting": "NCI-H2342; first compound 0.253 µM", "value": 0.44}, {"measurement": "relative viability", "setting": "NCI-H2342; first compound 0.8 µM", "value": 0.504}, {"measurement": "relative viability", "setting": "NCI-H2342; first compound 2.53 µM", "value": 0.389}, {"measurement": "relative viability", "setting": "NCI-H1755; first compound 0.08 µM", "value": 0.893}, {"measurement": "relative viability", "setting": "NCI-H1755; first compound 0.253 µM", "value": 0.846}, {"measurement": "relative viability", "setting": "NCI-H1755; first compound 0.8 µM", "value": 0.908}, {"measurement": "relative viability", "setting": "NCI-H1755; first compound 2.53 µM", "value": 0.907}, {"measurement": "relative viability", "setting": "LCLC-97TM1; first compound 0.08 µM", "value": 0.383}, {"measurement": "relative viability", "setting": "LCLC-97TM1; first compound 0.253 µM", "value": 0.393}, {"measurement": "relative viability", "setting": "LCLC-97TM1; first compound 0.8 µM", "value": 0.433}, {"measurement": "relative viability", "setting": "LCLC-97TM1; first compound 2.53 µM", "value": 0.385}, {"measurement": "relative viability", "setting": "NCI-H1355; first compound 0.08 µM", "value": 0.829}, {"measurement": "relative viability", "setting": "NCI-H1355; first compound 0.253 µM", "value": 0.691}, {"measurement": "relative viability", "setting": "NCI-H1355; first compound 0.8 µM", "value": 0.751}, {"measurement": "relative viability", "setting": "NCI-H1355; first compound 2.53 µM", "value": 0.756}, {"measurement": "relative viability", "setting": "NCI-H1734; first compound 0.08 µM", "value": 0.593}, {"measurement": "relative viability", "setting": "NCI-H1734; first compound 0.253 µM", "value": 0.588}, {"measurement": "relative viability", "setting": "NCI-H1734; first compound 0.8 µM", "value": 0.653}, {"measurement": "relative viability", "setting": "NCI-H1734; first compound 2.53 µM", "value": 0.699}, {"measurement": "relative viability", "setting": "PC-3 [JPC-3]; first compound 0.08 µM", "value": 1.1}, {"measurement": "relative viability", "setting": "PC-3 [JPC-3]; first compound 0.253 µM", "value": 1.09}, {"measurement": "relative viability", "setting": "PC-3 [JPC-3]; first compound 0.8 µM", "value": 1.21}, {"measurement": "relative viability", "setting": "PC-3 [JPC-3]; first compound 2.53 µM", "value": 1.14}, {"measurement": "relative viability", "setting": "NCI-H661; first compound 0.08 µM", "value": 0.776}, {"measurement": "relative viability", "setting": "NCI-H661; first compound 0.253 µM", "value": 0.677}, {"measurement": "relative viability", "setting": "NCI-H661; first compound 0.8 µM", "value": 0.791}, {"measurement": "relative viability", "setting": "NCI-H661; first compound 2.53 µM", "value": 0.751}, {"measurement": "relative viability", "setting": "HCC-827; first compound 0.08 µM", "value": 0.64}, {"measurement": "relative viability", "setting": "HCC-827; first compound 0.253 µM", "value": 0.647}, {"measurement": "relative viability", "setting": "HCC-827; first compound 0.8 µM", "value": 0.667}, {"measurement": "relative viability", "setting": "HCC-827; first compound 2.53 µM", "value": 0.669}, {"measurement": "relative viability", "setting": "NCI-H520; first compound 0.08 µM", "value": 0.282}, {"measurement": "relative viability", "setting": "NCI-H520; first compound 0.253 µM", "value": 0.296}, {"measurement": "relative viability", "setting": "NCI-H520; first compound 0.8 µM", "value": 0.252}, {"measurement": "relative viability", "setting": "NCI-H520; first compound 2.53 µM", "value": 0.352}, {"measurement": "relative viability", "setting": "H3255; first compound 0.08 µM", "value": 0.552}, {"measurement": "relative viability", "setting": "H3255; first compound 0.253 µM", "value": 0.529}, {"measurement": "relative viability", "setting": "H3255; first compound 0.8 µM", "value": 0.588}, {"measurement": "relative viability", "setting": "H3255; first compound 2.53 µM", "value": 0.56}, {"measurement": "relative viability", "setting": "PC-14; first compound 0.08 µM", "value": 0.206}, {"measurement": "relative viability", "setting": "PC-14; first compound 0.253 µM", "value": 0.271}, {"measurement": "relative viability", "setting": "PC-14; first compound 0.8 µM", "value": 0.276}, {"measurement": "relative viability", "setting": "PC-14; first compound 2.53 µM", "value": 0.315}, {"measurement": "relative viability", "setting": "EKVX; first compound 0.08 µM", "value": 0.909}, {"measurement": "relative viability", "setting": "EKVX; first compound 0.253 µM", "value": 0.733}, {"measurement": "relative viability", "setting": "EKVX; first compound 0.8 µM", "value": 0.799}, {"measurement": "relative viability", "setting": "EKVX; first compound 2.53 µM", "value": 0.917}, {"measurement": "relative viability", "setting": "NCI-H1975; first compound 0.08 µM", "value": 0.855}, {"measurement": "relative viability", "setting": "NCI-H1975; first compound 0.253 µM", "value": 0.742}, {"measurement": "relative viability", "setting": "NCI-H1975; first compound 0.8 µM", "value": 0.749}, {"measurement": "relative viability", "setting": "NCI-H1975; first compound 2.53 µM", "value": 0.765}, {"measurement": "relative viability", "setting": "NCI-H322M; first compound 0.08 µM", "value": 0.758}, {"measurement": "relative viability", "setting": "NCI-H322M; first compound 0.253 µM", "value": 0.659}, {"measurement": "relative viability", "setting": "NCI-H322M; first compound 0.8 µM", "value": 0.949}, {"measurement": "relative viability", "setting": "NCI-H322M; first compound 2.53 µM", "value": 0.727}, {"measurement": "relative viability", "setting": "NCI-H2228; first compound 0.08 µM", "value": 0.658}, {"measurement": "relative viability", "setting": "NCI-H2228; first compound 0.253 µM", "value": 0.573}, {"measurement": "relative viability", "setting": "NCI-H2228; first compound 0.8 µM", "value": 0.863}, {"measurement": "relative viability", "setting": "NCI-H2228; first compound 2.53 µM", "value": 0.924}, {"measurement": "relative viability", "setting": "HCC-15; first compound 0.08 µM", "value": 0.717}, {"measurement": "relative viability", "setting": "HCC-15; first compound 0.253 µM", "value": 0.703}, {"measurement": "relative viability", "setting": "HCC-15; first compound 0.8 µM", "value": 0.774}, {"measurement": "relative viability", "setting": "HCC-15; first compound 2.53 µM", "value": 0.649}]}
